Active and inactive are the calls of the source. The rule behind the calls is not given here.
Assays:
Assay in all cases: ABPP selectivity across brain serine hydrolases – biochemical, gel-based competitive ABPP, mouse brain membrane, set 1, selectivity assay for DAGLb inhibitor project, late-stage follow-up (AID 602311)
[1] = molecular target: Acyl-protein thioesterase 1 (Mus musculus) (UniProt P97823); settings: gel-based competitive ABPP fluorescence, LYPLA1, at 10 µM, stronger effect = higher value
Sequence of Acyl-protein thioesterase 1 (Mus musculus) (P97823 whole entry, looked up): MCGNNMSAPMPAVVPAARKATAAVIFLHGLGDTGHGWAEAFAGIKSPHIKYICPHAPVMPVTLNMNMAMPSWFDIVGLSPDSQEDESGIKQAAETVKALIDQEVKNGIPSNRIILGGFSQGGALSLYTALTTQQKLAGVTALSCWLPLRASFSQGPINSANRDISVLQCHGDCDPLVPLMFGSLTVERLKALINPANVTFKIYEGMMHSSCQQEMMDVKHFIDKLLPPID

[2] = tested on: KIAA1363; settings: gel-based competitive ABPP fluorescence, at 10 µM, stronger effect = higher value
[3] = tested on: FAAH; settings: gel-based competitive ABPP fluorescence, at 10 µM, stronger effect = higher value
[4] = molecular target: Monoacylglycerol lipase ABHD6 (Mus musculus) (UniProt Q8R2Y0); settings: gel-based competitive ABPP fluorescence, at 10 µM, stronger effect = higher value
Sequence of Monoacylglycerol lipase ABHD6 (Mus musculus) (Q8R2Y0 whole entry, looked up): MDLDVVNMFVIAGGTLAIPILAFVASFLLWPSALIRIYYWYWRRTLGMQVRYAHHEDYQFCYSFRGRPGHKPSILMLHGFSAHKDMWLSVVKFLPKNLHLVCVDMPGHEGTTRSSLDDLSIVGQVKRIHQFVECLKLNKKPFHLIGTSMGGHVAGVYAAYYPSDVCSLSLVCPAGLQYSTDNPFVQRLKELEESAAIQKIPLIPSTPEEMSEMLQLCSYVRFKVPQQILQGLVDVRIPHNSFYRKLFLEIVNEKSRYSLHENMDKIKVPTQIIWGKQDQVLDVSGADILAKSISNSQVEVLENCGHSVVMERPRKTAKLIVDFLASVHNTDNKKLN

[5] = tested on: APEH; settings: gel-based competitive ABPP fluorescence, at 10 µM, stronger effect = higher value
[6] = tested on: MAGL; settings: gel-based competitive ABPP fluorescence, at 10 µM, stronger effect = higher value
[7] = tested on: LYPLA2; settings: gel-based competitive ABPP fluorescence, at 10 µM, stronger effect = higher value
[8] = tested on: ABHD12; settings: gel-based competitive ABPP fluorescence, at 10 µM, stronger effect = higher value

Structure (SMILES) | inhibition [1] | inhibition [2] | inhibition [3] | inhibition [4] [%] | inhibition [5] | inhibition [6] | inhibition [7] | inhibition [8]
O=C(N1CCCCC1c1ccccc1)n1cc(C(O)(c2ccccc2)c2ccccc2)nn1 (stereo not drawn) | 100% | 100% | 55% | 100 | 95% | 0% (inactive) | 100% | 0% (inactive)
O=C(N1CCCCC1Cc1ccccc1)n1ncc(C(O)(c2ccccc2)c2ccccc2)n1 (stereo not drawn) | 0% (inactive) | 0% (inactive) | 0% (inactive) | 85 | 0% (inactive) | 0% (inactive) | 0% (inactive) | 0% (inactive)
O=C(N1CCCCC1Cc1ccccc1)n1cc(-c2ccccc2-c2ccccc2)nn1 (stereo not drawn) | 10% (inactive) | 0% (inactive) | 98% | 80 | 0% (inactive) | 75% | 10% (inactive) | 0% (inactive)
CC(C)(C)OC(=O)NCCCCCN(CCc1ccccc1)C(=O)n1cc(-c2ccc(OC(F)(F)F)cc2)nn1 | 0% (inactive) | 0% (inactive) | 0% (inactive) | 95 | 0% (inactive) | 10% (inactive) | 0% (inactive) | 0% (inactive)
CC(C)CN(CCc1ccccc1)C(=O)n1cc(-c2ccc(OC(F)(F)F)cc2)nn1 | 0% (inactive) | 0% (inactive) | 0% (inactive) | 90 | 0% (inactive) | 0% (inactive) | 0% (inactive) | 0% (inactive)
O=C(N1CCCCC1Cc1ccccc1)n1cc(-c2ccc(-c3cccc(C(F)(F)F)c3)cc2)nn1 (stereo not drawn) | 0% (inactive) | 10% (inactive) | 65% | 85 | 0% (inactive) | 1% (inactive) | 0% (inactive) | 0% (inactive)
O=C(N1CCCCC1Cc1ccccc1)n1cc(-c2ccc(-c3ccccc3OC(F)(F)F)cc2)nn1 (stereo not drawn) | 0% (inactive) | 25% (inactive) | 45% (inactive) | 85 | 0% (inactive) | 60% | 0% (inactive) | 0% (inactive)
O=C(N1CCCCC1Cc1ccccc1)n1cc(-c2ccc(-c3ccc(C(F)(F)F)cc3)cc2)nn1 (stereo not drawn) | 0% (inactive) | 60% | 55% | 90 | 0% (inactive) | 10% (inactive) | 0% (inactive) | 0% (inactive)
O=C(N1CCCCC1Cc1ccccc1)n1cc(-c2ccc(-c3ccc4c(c3)OCO4)cc2)nn1 (stereo not drawn) | 0% (inactive) | 0% (inactive) | 50% | 90 | 0% (inactive) | 0% (inactive) | 0% (inactive) | 0% (inactive)
COc1ccccc1-c1ccc(-c2cn(C(=O)N3CCCCC3Cc3ccccc3)nn2)cc1 (stereo not drawn) | 0% (inactive) | 0% (inactive) | 10% (inactive) | 85 | 0% (inactive) | 70% | 0% (inactive) | 0% (inactive)
O=C(N1CCCCC1Cc1ccccc1)n1cc(-c2ccc(-c3cccc(CO)c3)cc2)nn1 (stereo not drawn) | 0% (inactive) | 0% (inactive) | 40% (inactive) | 90 | 0% (inactive) | 10% (inactive) | 0% (inactive) | 0% (inactive)
O=C(N1CCCCC1Cc1ccccc1)n1cc(-c2ccc(-c3ccccc3C(F)(F)F)cc2)nn1 (stereo not drawn) | 0% (inactive) | 0% (inactive) | 40% (inactive) | 80 | 0% (inactive) | 1% (inactive) | 0% (inactive) | 0% (inactive)
O=C(N1CCCCC1Cc1ccccc1)n1cc(-c2cc(F)cc(F)c2)nn1 (stereo not drawn) | 50% | 85% | 98% | 90 | 0% (inactive) | 95% | 50% | 0% (inactive)
O=C(N1CCCCC1Cc1ccccc1)n1cc(-c2ccc(-c3ccccc3)cc2)nn1 (stereo not drawn) | 0% (inactive) | 0% (inactive) | 0% (inactive) | 95 | 0% (inactive) | 0% (inactive) | 0% (inactive) | 0% (inactive)
O=C(N1CCCCC1Cc1ccccc1)n1cc(-c2cccc(-c3ccccc3)c2)nn1 (stereo not drawn) | 0% (inactive) | 0% (inactive) | 65% | 85 | 0% (inactive) | 80% | 0% (inactive) | 0% (inactive)
O=C(N1CCCCC1Cc1ccccc1)n1ncc(-c2ccc(OC(F)(F)F)cc2)n1 (stereo not drawn) | 0% (inactive) | 90% | 98% | 85 | 0% (inactive) | 0% (inactive) | 0% (inactive) | 0% (inactive)
O=C(N1CCCCC1Cc1ccccc1)n1cc(-c2ccc(-c3ccc(OC(F)(F)F)cc3)cc2)nn1 (stereo not drawn) | 0% (inactive) | 55% | 45% (inactive) | 90 | 0% (inactive) | 0% (inactive) | 0% (inactive) | 0% (inactive)
O=C(N(CCc1ccccc1)Cc1ccco1)n1cc(-c2ccc(OC(F)(F)F)cc2)nn1 | 0% (inactive) | 55% | 95% | 95 | 0% (inactive) | 10% (inactive) | 0% (inactive) | 0% (inactive)

The remaining lines, values ahead:

inhibition [1] | inhibition [2] | inhibition [3] | inhibition [4] [%] | inhibition [5] | inhibition [6] | inhibition [7] | inhibition [8] | Structure (SMILES)
0% (inactive) | 10% (inactive) | 10% (inactive) | 85 | 0% (inactive) | 0% (inactive) | 0% (inactive) | 0% (inactive) | O=C(c1ccc(-c2ccc(-c3cn(C(=O)N4CCCCC4Cc4ccccc4)nn3)cc2)cc1)N1CCCCC1 (stereo not drawn)
0% (inactive) | 0% (inactive) | 30% (inactive) | 98 | 0% (inactive) | 0% (inactive) | 0% (inactive) | 0% (inactive) | Cc1ccccc1-c1ccc(-c2cn(C(=O)N3CCCCC3Cc3ccccc3)nn2)cc1 (stereo not drawn)
25% (inactive) | 0% (inactive) | 55% | 98 | 0% (inactive) | 0% (inactive) | 25% (inactive) | 0% (inactive) | O=C(c1ccc(-c2cn(C(=O)N3CCCCC3Cc3ccccc3)nn2)cc1)N1CCCCC1 (stereo not drawn)
0% (inactive) | 20% (inactive) | 30% (inactive) | 95 | 0% (inactive) | 10% (inactive) | 0% (inactive) | 0% (inactive) | O=C(N1CCCCC1Cc1ccccc1)n1cc(-c2ccc(-c3ccccc3Cl)cc2)nn1 (stereo not drawn)
0% (inactive) | 40% (inactive) | 65% | 90 | 0% (inactive) | 40% (inactive) | 0% (inactive) | 0% (inactive) | O=C(N1CCCCC1Cc1ccccc1)n1cc(-c2ccc(OC(F)(F)F)cc2)nn1 (stereo not drawn)
0% (inactive) | 0% (inactive) | 40% (inactive) | 98 | 0% (inactive) | 10% (inactive) | 0% (inactive) | 0% (inactive) | O=C(N1CCCCC1Cc1ccccc1)n1cc(-c2ccc(-c3ccoc3)cc2)nn1 (stereo not drawn)
0% (inactive) | 0% (inactive) | 90% | 90 | 0% (inactive) | 90% | 0% (inactive) | 0% (inactive) | O=C(N1CCCCC1Cc1ccccc1)n1cc(-c2ccc(Br)cc2)nn1 (stereo not drawn)
20% (inactive) | 0% (inactive) | 55% | 95 | 0% (inactive) | 95% | 20% (inactive) | 10% (inactive) | O=C(N1CCCCC1Cc1ccccc1)n1cc(-c2ccc(-c3ccccc3CO)cc2)nn1 (stereo not drawn)

Source: PubChem BioAssay AID602311 (The Scripps Research Institute Molecular Screening Center, 2012)
